Here are results for 24 compounds from patent US12084419B2, “Cell metabolism modulating compounds and uses thereof” (CRESCENTA BIOSCIENCES, priority 2020, dated 2024).

The structures appear in SMILES notation.

This experiment concerns the target T1, His6 tagged human recombinant FABP4 (Homo sapiens, UniProt P15090).
T1 construct: purchased Cayman Chemicals 10009549
Kind of experiment: FABP4 TR-FRET assay: displacement of BODIPY FL C12 fatty acid. The settings on record: triplicates, inhibition of BODIPY FL C12 binding. From the text:
Activity of compounds with FABP4 was profiled using a Terbium (Tb) based time resolved fluorescence energy transfer (TR-FRET) assay. The assay measures the compound mediated displacement of the fluorescent fatty acid BODIPY FL C12 (Thermo Fisher; catalog number D3822) from His6 tagged human recombinant FABP4 (His6-FABP4; Cayman Chemicals, catalog number 10009549) via recording the energy transfer from TB donor molecule on anti-His6-tag antibody to acceptor BODIPY moiety. Briefly, compounds were prepared at a concentration of 0.362 mM and 0.0362 mM, and BODIPY FL C12 was prepared at 4.2 μM, in DMSO. 1.2 μL of each compound or DMSO (vehicle control) and 1.2 μL of BODIPY FL C12 were added into the wells of a 384-well black polypropylene plate. His6-FABP4 and Tb anti-His6 antibody were prepared in the assay buffer (25 mM Tris/HCl, pH 7.4, 0.4 mg/ml y-globulins, 0.010% NP-40, 1 mM DTT) at a concentration of 83 nM and 49.6 nM, respectively. The protein and antibody solutions were then mixed at a ratio of 34:7 (v/v) and incubated on ice for 30 minutes. The assay was initiated by adding 41 μL of the resulting protein/antibody solution into the wells containing the compounds and BODIPY FL C12. The plate was centrifuged and incubated at room temperature for 10 min. The TR-FRET signals were recorded using an EnVision Multilabel plate reader (PerkinElmer; TB excitation 320 nm, BODIPY FL C12 emission 520 nm; TB emission 615 nm). Relative fluorescence ratio (520 nm*10,000/615 nm) were used to calculate the compound mediated inhibition of BODIPY C12 FL fatty acid binding to FABP4. […] Glucose consumption and FABP4 inhibition is shown below in Table 3 below.
For orientation: In TR-FRET formats the signal depends on donor and acceptor labels being close together.

T1 sequence (P15090 whole entry): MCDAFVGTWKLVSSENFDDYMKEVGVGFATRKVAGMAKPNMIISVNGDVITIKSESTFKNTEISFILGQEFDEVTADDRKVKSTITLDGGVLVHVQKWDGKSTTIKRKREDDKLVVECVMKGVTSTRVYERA

For orientation: inhibition means the drop in the measured response relative to a control, in per cent. Consider `CCCCC1CCc2c1n(Cc1cccc(C(N)=O)c1)c1c(C(=O)O)cccc21` (centres unmarked) [3-butyl-4-[(3-carbamoylphenyl)methyl]-1H,2H,3H,4H-cyclopenta[b]indole-5-carboxylic acid], for which the inhibition at 1 µM (1 μM compound) turned out to be 96.8%. Also, the inhibition at 10 µM (10 μM compound) was determined as 98.5%.
Regarding `CCCCC1CCCc2c(n(Cc3ccccc3C(N)=O)c3c(C(=O)O)cccc23)C1` (centres unmarked) [7-butyl-5-[(2-carbamoylphenyl)methyl]-5H,6H,7H,8H,9H,10H-cyclohepta[b]indole-4-carboxylic acid], the inhibition at 1 µM (1 μM compound) came out at 71.3%. Also, where the note is “10 μM compound”, the inhibition at 10 µM is 94.5%.
With `CCCCC1CCCCc2c1n(Cc1cccc(C#N)c1)c1c(C(=O)O)cccc21` (centres unmarked) [6-butyl-5-[(3-cyanophenyl)methyl]-5H,6H,7H,8H,9H,10H-cyclohepta[b]indole-4-carboxylic acid], the inhibition at 1 µM (1 μM compound) was determined as 71.3%. The inhibition at 10 µM (10 μM compound) was found to be 85.7%.
The matching figures for `CCCCCCC1CCCc2c(n(Cc3cccc(Cl)c3)c3c(C(=O)O)cccc23)C1` (centres unmarked) [5-[(3-chlorophenyl)methyl]-7-hexyl-5H,6H,7H,8H,9H,10H-cyclohepta[b]indole-4-carboxylic acid]: 103% and 45.9%.
The matching figures for `CCCCC1CCCc2c(n(Cc3cccc(C)c3)c3c(C(=O)O)cccc23)C1` (centres unmarked) [7-butyl-5-[(3-methylphenyl)methyl]-5H,6H,7H,8H,9H,10H-cyclohepta[b]indole-4-carboxylic acid]: 94.8% and 91%.
The matching figures for `CCC1CCc2c(n(Cc3cccc(C(N)=O)c3)c3c(C(=O)O)cccc23)C1` (centres unmarked) [9-[(3-carbamoylphenyl)methyl]-2-ethyl-2,3,4,9-tetrahydro-1H-carbazole-8-carboxylic acid]: 85.5% and 101%.
As for `CCCCCC1CCc2c(c3cccc(C(=O)O)c3n2Cc2cccc(C(N)=O)c2)C1` (centres unmarked) [9-[(3-carbamoylphenyl)methyl]-3-pentyl-2,3,4,9-tetrahydro-1H-carbazole-8-carboxylic acid], the inhibition at 1 µM (1 μM compound) worked out at 90.9%. In addition, for the setting “10 μM compound”, the inhibition at 10 µM came to 98.4%.
The like results for `CCCCCCC1CCc2c(n(Cc3cccc(O)c3)c3c(C(=O)O)cccc23)C1` (centres unmarked) [2-hexyl-9-[(3-hydroxyphenyl)methyl]-2,3,4,9-tetrahydro-1H-carbazole-8-carboxylic acid] were, in that order, 77.9% and 93.1%.
The like results for `CCCCCCC1CCCc2c(n(Cc3cccc(C(N)=O)c3)c3c(C(=O)O)cccc23)C1` (centres unmarked) [5-[(3-carbamoylphenyl)methyl]-7-hexyl-5H,6H,7H,8H,9H,10H-cyclohepta[b]indole-4-carboxylic acid] were, in that order, 102% and 94.2%.
In the case of `CCCCCCC1CCCc2c(n(Cc3ccc(C#N)s3)c3c(C(=O)O)cccc23)C1` (centres unmarked) [5-[(5-cyanothiophen-2-yl)methyl]-7-hexyl-5H,6H,7H,8H,9H,10H-cyclohepta[b]indole-4-carboxylic acid], for the setting “1 μM compound”, the “FABP4 inhibition (%) at 1 μM Mean” value came to 83.31% and the inhibition at 1 µM was 86.6%. For the same compound, under “10 μM compound”, the “FABP4 inhibition (%) at 10 μM Mean” value turned out to be 89.42% and the inhibition at 10 µM was 87.3%.
For `CCCCCCC1CCc2c(n(Cc3ccc(C#N)cc3)c3c(C(=O)O)cccc23)C1` (centres unmarked) [9-[(4-cyanophenyl)methyl]-2-hexyl-2,3,4,9-tetrahydro-1H-carbazole-8-carboxylic acid], the inhibition at 1 µM (1 μM compound) came out at 39.7%. The inhibition at 10 µM (10 μM compound) worked out at 78.9%.
Turning to `CCC1CCc2c(c3cccc(C(=O)O)c3n2Cc2cccc(C#N)c2)C1` (centres unmarked) [9-[(3-cyanophenyl)methyl]-3-ethyl-2,3,4,9-tetrahydro-1H-carbazole-8-carboxylic acid], the inhibition at 1 µM (1 μM compound) was 45.8%. In addition, where the note is “10 μM compound”, the inhibition at 10 µM was found to be 90.3%.
The matching figures for `CCCCC1CCCc2c(n(Cc3cccc(O)c3)c3c(C(=O)O)cccc23)C1` (centres unmarked) [7-butyl-5-[(3-hydroxyphenyl)methyl]-5H,6H,7H,8H,9H,10H-cyclohepta[b]indole-4-carboxylic acid]: 98.7% and 96.1%.
The like results for `CCCCC1CCCc2c1n(Cc1cccc(C#N)c1)c1c(C(=O)O)cccc21` (centres unmarked) [1-butyl-9-[(3-cyanophenyl)methyl]-2,3,4,9-tetrahydro-1H-carbazole-8-carboxylic acid] were, in that order, 58% and 93.7%.
`CCCCCCC1CCCc2c(n(Cc3cccc(C#N)c3F)c3c(C(=O)O)cccc23)C1` (centres unmarked) [5-[(3-cyano-2-fluorophenyl)methyl]-7-hexyl-5H,6H,7H,8H,9H,10H-cyclohepta[b]indole-4-carboxylic acid]: where the note is “1 μM compound”, the inhibition at 1 µM was found to be 87.9%. Further, the inhibition at 10 µM (10 μM compound) came to 95.5%.
As to `CCCCCCCCC1CCCc2c(n(Cc3cccc(C(N)=O)c3)c3c(C(=O)O)cccc23)C1` (centres unmarked) [5-[(3-carbamoylphenyl)methyl]-7-octyl-5H,6H,7H,8H,9H,10H-cyclohepta[b]indole-4-carboxylic acid], the inhibition at 1 µM (1 μM compound) was 98.1%. The inhibition at 10 µM (10 μM compound) is 93.6%.
The like results for `CCCOC1CCCc2c1n(Cc1cccc(C(N)=O)c1)c1c(C(=O)O)cccc21` (centres unmarked) [9-[(3-carbamoylphenyl)methyl]-1-propoxy-2,3,4,9-tetrahydro-1H-carbazole-8-carboxylic acid] were, in that order, 57.6% and 92%.
The like results for `CCCCC1CCCc2c(n(Cc3cccnc3)c3c(C(=O)O)cccc23)C1` (centres unmarked) [7-butyl-5-[(pyridin-3-yl)methyl]-5H,6H,7H,8H,9H,10H-cyclohepta[b]indole-4-carboxylic acid] were, in that order, 71.6% and 83.8%.
Regarding `CCCCC1CCCc2c(n(Cc3cccc(F)c3)c3c(C(=O)O)cccc23)C1` (centres unmarked) [7-butyl-5-[(3-fluorophenyl)methyl]-5H,6H,7H,8H,9H,10H-cyclohepta[b]indole-4-carboxylic acid], the inhibition at 1 µM (1 μM compound) is 97%. Also, the inhibition at 10 µM (10 μM compound) was determined as 90.6%.
The like results for `CCCCCC1CCCc2c1c1cccc(C(=O)O)c1n2Cc1cccc(C(N)=O)c1` (centres unmarked) [9-[(3-carbamoylphenyl)methyl]-4-pentyl-2,3,4,9-tetrahydro-1H-carbazole-8-carboxylic acid] were, in that order, 42.6% and 84.4%.
Consider `CCCCCCC1CCc2c(n(Cc3ccccc3C)c3c(C(=O)O)cccc23)C1` (centres unmarked) [2-hexyl-9-[(2-methylphenyl)methyl]-2,3,4,9-tetrahydro-1H-carbazole-8-carboxylic acid], for which the inhibition at 1 µM (1 μM compound) was 87.4%. Moreover, the inhibition at 10 µM (10 μM compound) amounted to 83.2%.
The like results for `CCCCCCC1CCCc2c(n(Cc3cccc(F)n3)c3c(C(=O)O)cccc23)C1` (centres unmarked) [5-[(6-fluoropyridin-2-yl)methyl]-7-hexyl-5H,6H,7H,8H,9H,10H-cyclohepta[b]indole-4-carboxylic acid] were, in that order, 86.5% and 91.8%.
The matching figures for `CCCCC1CCCCc2c1n(Cc1cccc(C(N)=O)c1)c1c(C(=O)O)cccc21` (centres unmarked) [6-butyl-5-[(3-carbamoylphenyl)methyl]-5H,6H,7H,8H,9H,10H-cyclohepta[b]indole-4-carboxylic acid]: 91.4% and 95.2%.
The matching figures for `CCCC1CCCc2c1c1cccc(C(=O)O)c1n2Cc1cccc(C(N)=O)c1` (centres unmarked) [9-[(3-carbamoylphenyl)methyl]-4-propyl-2,3,4,9-tetrahydro-1H-carbazole-8-carboxylic acid]: 53.9% and 90%.
